# Where “and” joins values, the source holds several entries; their conditions need not be identical. Identical values can stand only once. Like-named read-outs stand apart in the source and are kept apart here.
# Legend:
# RCAR1-ABI2 = biological target: T1, RCAR1-ABI2 (Arabidopsis thaliana, UniProt O04719+Q84MC7); assay: In vitro phosphatase assay, ABI2 with RCAR1; format: biochemical
# T1 construct: 6xHis (N); made in house; host or cells: Escherichia coli BL21
# T1 sequence (Q84MC7 1-187): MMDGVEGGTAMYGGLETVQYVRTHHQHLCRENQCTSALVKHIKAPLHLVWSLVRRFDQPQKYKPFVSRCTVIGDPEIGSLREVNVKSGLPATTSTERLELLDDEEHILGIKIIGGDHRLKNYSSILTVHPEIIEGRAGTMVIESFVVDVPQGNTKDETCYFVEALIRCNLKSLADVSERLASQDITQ
# T1 sequence (O04719 1-423): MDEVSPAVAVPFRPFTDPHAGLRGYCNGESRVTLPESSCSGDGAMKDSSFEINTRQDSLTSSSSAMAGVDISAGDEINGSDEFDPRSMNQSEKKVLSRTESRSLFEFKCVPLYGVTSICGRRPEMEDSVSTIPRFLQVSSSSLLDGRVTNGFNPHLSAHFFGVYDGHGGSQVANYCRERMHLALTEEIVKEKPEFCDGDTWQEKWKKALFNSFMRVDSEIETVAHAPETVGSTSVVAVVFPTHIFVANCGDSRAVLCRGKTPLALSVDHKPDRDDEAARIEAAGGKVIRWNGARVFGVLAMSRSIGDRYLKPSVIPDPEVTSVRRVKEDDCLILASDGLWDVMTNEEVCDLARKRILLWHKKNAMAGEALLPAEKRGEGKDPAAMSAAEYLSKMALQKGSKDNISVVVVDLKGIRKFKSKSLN
# Protocol: (§1) Expression, purification, and analysis of RCAR and PP2C proteins were performed essentially as described ([Ruschhaupt et al., 2019]). Briefly, the ABA receptors RCAR1, RACR8, and RCAR11 were expressed with an aminoterminal histidine tag using the pSEVA431_LII_6xHIS::RCAR1/RCAR8/RCAR11. ABA coreceptors were expressed as histidine-tagged fusions with the maltose-binding protein using the pSEVA431_LII_6xHIS::MBP::ABI2/HAB1. All constructs were transformed and expressed in Escherichia coli strain BL21 and purified to homogeneity according to supplier’s instruction (GE Healthcare, Chicago, USA). The receptor assay was performed with 100 nM PP2C and a two-fold molar excess of RCAR. Values are means ± SD of three replicates. […] The maximum inhibition was set to 100% in the figures. The phosphatase activity was measured using 4-methylumbelliferyl-phosphate as a substrate ([Meinhard and Grill, 2001]). The increase in fluorescence was recorded over 25 min with excitation and emission wavelengths at 360 and 460 nm, respectively, using a Synergy 2 plate reader (Bio-Tec, Winooski, USA).
# wheat plants = assay: Foliar administration and thermal imaging of leaf temperature, wheat; format: in vivo, Triticum aestivum
# Protocol: (§2) Thermal imaging was carried out as described ([Yang et al., 2016]). An assessment of the efficacy of ABA and CCPs was conducted by using 35-day-old Arabidopsis and 30-day-old wheat plants. Stock solutions (10 mM) of CCPs and ABA dissolved in dimethyl sulfoxide (DMSO) were diluted to the respective ligand concentrations (10, 30, 100 µM) in water containing 0.01% (v/v) Tween 20. Aqueous Tween 20 solutions supplemented with 0.1%, 0.3%, and 1% DMSO served for mock treatments. The solutions were sprayed onto the leaf surface until the run-off of droplets. One day after application (unless otherwise indicated), thermal imaging was conducted using the InfraTec instrument (IR-TCM 384, InfraTec, Dresden, Germany). The leaf temperature of Arabidopsis was determined as the average temperature of all leaves. The leaf temperature of wheat was determined as described ([Yang et al., 2019]).
# Arabidopsis plants [1] = assay: Foliar administration and thermal imaging of leaf temperature (transpiration), Arabidopsis; format: in vivo, Arabidopsis thaliana
# Protocol: as §2
# ABI2 with RCARs = assay: In vitro receptor assay, ABI2 in the presence of RCAR1, RCAR8 or RCAR11; format: biochemical, Arabidopsis thaliana
# Protocol: as §1
# HAB1 with RCARs = assay: In vitro receptor assay, HAB1 in the presence of RCARs; format: biochemical, Arabidopsis thaliana; conditions: HAB1, in the presence of RCARs and saturating ABA levels (1 mM)
# Protocol: as §1
# RCAR11-ABI2 = assay: Yeast ABA signal pathway LUC reporter, RCAR11-ABI2; format: cell-based, Arabidopsis thaliana
# Protocol: The yeast cultivation and the life luciferase assay were performed as described ([Ruschhaupt et al., 2019]). Briefly, the reporter yeast expressing an ABA-dependent luciferase gene (LUC) was transformed with different combinations of ABA signaling components as indicated. Golden gate cloning ([Binder et al., 2014]) was used to construct pYEAST_LII_5‐6_CEN_URA vector with TDH3 promoter and TDH1 terminator (tTDH1), pYEAST_LII_1‐2_CEN_LEU vector with GK1 promoter and tTDH1, and pYEAST_LII_3‐4_CEN_TRP with the GAL1 promoter (pGAL1) and tTDH1 to express RCARs, PP2Cs, and OST1 (SnRK2.6), respectively ([Ruschhaupt et al., 2019]). The expression of ABF2 in yeast relies on a modified pGREG503 vector, in which pGAL1 ([Jansen et al., 2005]) was replaced by the ADH1 promoter.
# Colonies of freshly transformed cells were inoculated in 0.5 mL supplemented synthetic dextrose (SD) medium and incubated at 30°C in a gyratory shaker (Thermoshake-THO500, Gerhardt, Königswinter, Germany) at 200 rpm for 16-18 h. After overnight growth, the cells were harvested and washed in SD medium followed by inoculation in SD medium containing 2% galactose for induction of SnRK2 kinases under the control of the GAL1 promoter and supplementation with ligands at indicated concentrations, to an OD600 of 0.2 in flat-bottom 96-well plates (CytoOne, Starlab, Hamburg, Germany). Yeast cultures were incubated at 30°C and 200 rpm for 16-18 h before determination of LUC activity and cell density. Light emission of yeasts was detected in a HIDEX plate luminometer (HIDEX, Turku, Finland) after injection of 100 µL freshly prepared luciferin substrate (1 mM D-luciferin, Promega) provided in 100 mM citric acid, pH 3 ([Leskinen et al., 2003]) for 5 s and was corrected for background. The LUC activity was normalized to the cell density (OD600) measured in 96-well flat plates (Sarstedt, Nümbrecht, Germany). LUC activity is given as the ratio of light emission to OD600 in counts per second.
# Arabidopsis plants [2] = assay: Progressive drought experiment: growth, water consumption, WUE; format: in vivo, Arabidopsis thaliana; conditions: 30 µM
# Protocol: The progressive drought experiment was performed as described ([Yang et al., 2016]). Briefly, 18-day-old Arabidopsis plantlets grown under well-watered and short-day conditions (8 h light with 150 µmol m^-2 s^-1 PAR, 22°C, 50% relative humidity, and 16 h dark with 17°C, 60% relative humidity) were transferred to 0.2 L pots loaded with water-saturated soil (33.4 ± 0.4 g dry soil with 148 ± 2 g water). At the onset of the progressive drought (day 0), water was withheld, and a sealed soil surface prevented evaporation. A slowly increasing water deficit was achieved by transpirational water loss from plants. The progressive drought experiment lasted for eight weeks until mock-treated plants had consumed all the plant-usable water. […] For measuring growth and water consumption, leaf rosettes were regularly photographed, and the pots were weighed. The projected leaf area of Arabidopsis rosettes was analyzed by using Photoshop Elements software (Adobe, San Jose, USA). The consumed water was calculated as the difference in pot weight between day 0 and the designated days. The retained water was expressed as the difference between the pot weight at the end of the drought (day 57) and the weight of the loaded dry soil. Above-ground material was harvested at day 57, and the biomass was determined after drying the material for three days at 60°C to achieve constant weight. WUE was calculated as the ratio of above-ground dry biomass to consumed water. The data for the mock- and ABA-treated plants in the progressive drought experiment were already published ([Yang et al., 2019]).
# Arabidopsis plants [3] = system: Arabidopsis plants; set-up: method as in Yang et al., 2019; conditions: ref Yang et al., 2019, cited from earlier work
# pig liver esterase = assay: De-esterification of CCPs by pig liver esterase (HPLC); format: in vitro ADME; conditions: 4 nkat pig liver esterase, 2 h, 25°C
# Source text: (S)-ABA was purchased from CHEMOS (www.chemos.de). Other chemicals were of the highest purity available and obtained from SigmaAldrich (www.sigmaaldrich.com), ROTH (www.carlroth.com), and J. T. Baker (http://www.avantormaterials.com) unless otherwise indicated. The Arabidopsis (Arabidopsis thaliana) accession Col-0 was received from the Nottingham Arabidopsis Stock Center. The elite wheat (Triticum aestivum) cultivar, Elixer, was provided from Bayerische Landesanstalt für Landwirtschaft, Freising. ABA and CCPs were dissolved in DMSO and diluted to designated concentrations before administration. For de-esterification, 0.2 µmol CCP was treated with 4 nkat pig liver esterase (Sigma-Aldrich, Burlington, MA, USA) for 2 h at 25°C according to supplier’s instruction.
# [4] = system: Arabidopsis aba2-1 protoplasts; assay: Transient ABA response in Arabidopsis protoplasts (pRD29B::LUC, RCAR11 and ABI2 effectors); format: cell-based, Arabidopsis thaliana; conditions: aba2-1 protoplasts, 18 h ligand exposure
# Protocol: Preparation of Arabidopsis protoplasts, transfection of the effector DNA, and analysis of LUC activity were performed as described ([Tischer et al., 2017]). In essence, 10^5 mesophyll protoplasts from leaves of the ABA deficient mutant aba2-1 ([Schwartz et al., 1997]) were transfected with 4 µg DNA of the pRD29B::LUC construct as an ABA-responsive reporter and 3 µg of p35S::GUS (β-glucuronidase reporter gene) expression cassette as an internal control for normalization. In addition, 3 µg p35S::RCAR11 or the empty vector with the same expression cassette were co-expressed with 0.1 µg p35S::ABI2 effector constructs ([Tischer et al., 2017]), and the ligand-dependent induction of ABA-responsive reporter expression were assessed after incubation at 22°C. The expression of LUC and GUS was determined 18 h after transfection and ligand administration.
# tomato = system: tomato; set-up: method as in Vaidya et al., 2019; conditions: ref Vaidya et al., 2019; cited from earlier work
# wheat = system: wheat; set-up: method as in Vaidya et al., 2019; conditions: ref Vaidya et al., 2019; cited from earlier work
# Arabidopsis = system: Arabidopsis; set-up: method as in Vaidya et al., 2019; conditions: 50 µM; ref Vaidya et al., 2019; cited from earlier work
smiles,measurement,setting,value
"CC1=CC(=O)CC(C)(C)[C@@]1(O)/C=C/C(C)=C\C(=O)O [ABA, abscisic acid]",IC50,RCAR1-ABI2,100 nM
same,Higher leaf temperature compared to the control,"wheat plants; 0.1 mM, one day after administration, averaged from six experiments",approximately 0.8 °C
same,Leaf temperature increase at 100 μM ABA,"wheat plants; 24 h, separate experiments run in parallel to the CCPs",0.6 ± 0.18 °C and 0.9 ± 0.19 °C and 0.6 ± 0.12 °C and 0.9 ± 0.03 °C and 0.9 ± 0.10 °C and 0.9 ± 0.07 °C
same,Time until leaf temperature reached starting values,Arabidopsis plants [1]; 10 µM,eight
same,Time of optimum of inhibited transpiration,Arabidopsis plants [1]; after single administration,between two and four days after administration
same,Residual phosphatase activity,"ABI2 with RCARs; ABI2, in the presence of RCARs and saturating ABA levels (1 mM)",10%
same,Residual phosphatase activity,HAB1 with RCARs,4%
same,LUC reporter induction compared to mock-treated cells,"RCAR11-ABI2; 30 µM exogenous ligand, 16 h exposure",approximately eightfold
same,Daily growth reduction,Arabidopsis plants [2],1%
same,Growth of leaf rosettes compared to mock,"Arabidopsis plants [3]; 10 µM, for six weeks",indistinguishable
same,WUE increase,Arabidopsis plants [3]; 10 µM,14%
same,"Soil water retained at the end of the drought, of initial soil water","Arabidopsis plants [3]; 30 µM, day 57",about 25%
same,Reduced projected leaf area,"Arabidopsis plants [3]; 30 µM, within 19 days",20%
same,Growth of leaf rosettes compared to mock,Arabidopsis plants [3]; 30 µM,growth reduction
same,WUE increase,Arabidopsis plants [3]; 30 µM,26%
CCCOC(=O)/C=C(\C=C\C(O)(C(C)C)C1(C#N)CC1)CC (stereo not drawn) [CCP3],Degree of ester-bond cleavage by PLE (conversion into free acid),pig liver esterase,complete de-esterification
same,"Leaf temperature increase, activity compared to ABA","wheat plants; 100 μM, 24 h after administration",higher activity than ABA
same,"Leaf temperature increase, activity compared to ABA","Arabidopsis plants [1]; 10, 30, 100 µM, one day after application",almost as active as the non-esterified CCP2
same,Activity and persistence of minimized transpiration compared to ABA,"Arabidopsis plants [1]; single application 100 µM, recorded for 19 days",more active and persistent than ABA
same,Activity in the in vitro receptor assay after esterase treatment,ABI2 with RCARs; pig liver esterase-treated,comparable activity as CCP2
same,Reporter activation after pig liver esterase treatment,"RCAR11-ABI2; 30 µM, PLE-treated prior to yeast exposure",comparable to esterase-treated CCP2 and ABA
same,Growth reduction compared to the control,Arabidopsis plants [2],about 60%
same,Leaf temperature increase,Arabidopsis plants [2]; 24 h after the first application,highest temperature increase
same,Reduction in biomass accumulation compared to the control,Arabidopsis plants [2]; day 57,60%
same,"Soil water retained at the end of the drought, of initial soil water",Arabidopsis plants [2]; day 57,approximately 75%
same,Growth of leaf rosettes compared to mock,Arabidopsis plants [2]; three administrations,growth reduction
same,Induction of ABA signaling compared to ABA,[4],not observed
N#Cc1c(C2CC2)cc(CC(=O)NC2(C(=O)O)CCCCC2)cc1C1CC1 [Opabactin],Efficiency in controlling transpiration compared to ABA,tomato,more efficient than ABA
same,Activity in controlling transpiration compared to ABA,wheat,comparable activity
same,Efficacy in elevating leaf temperature,Arabidopsis,ABA-comparable efficacy
